Test results reported in patent US20260137696A1, “Compositions Comprising an Inhibitor of Galectin-3” (University of Liverpool, priority 2023, published 2026).

Test system: THP-1 differentiated macrophages
Experiment: Galectin-3-induced pro-inflammatory cytokine secretion, cytokine ELISA
Format: cell-based
Settings: Galectin-3 10 μg/ml, various concentrations
Protocol: Secretion of pro-inflammatory cytokines IL-6 (FIG. 7A), IL-1β (FIG. 7B) and TNFα (FIG. 7C) from THP-1 differentiated macrophages was analysed in the absence or presence of Galectin-3 (10 μg/ml) and various concentrations of the compound of Formula I by cytokine ELISA.
THP-1 monocytes (5×10^5 cells/ml) were differentiated into macrophages by incubation with 10 ng/ml Phorbol 12-myristate-13-acetate (PMA) for 48 h at 37° C. The differentiated cells were washed gently with medium before introduction of fresh medium without or with 10 μg/ml Galectin-3, and/or different concentrations of the inhibitors for 24 h at 37° C. The culture medium was collected and the concentrations of IL-6, TNFα and IL1β in the medium were measured by IL-6, TNFα and IL1β ELISA kits according to the manufacture's protocols.

C[C@H]1COc2c(N3CCN(C)CC3)c(F)cc3c(=O)c(C(=O)NNc4ccc(N)cc4)cn1c23 [Formula I]
dose-dependent inhibition: Galectin-3-induced secretion of IL-1β | Galectin-3-induced secretion of IL-6 | Galectin-3-induced secretion of TNFα
